tested on: PANC-1 cells; experiment: Cell Titer-Glo luminescent cell viability assay, in vitro compound screening against pancreatic cancer cell lines; format: cell-based; conditions: 24 and 48-hour post dosing; 10 nM, 100 nM, 1 μM, 10 μM, and 100 μM; n=4
Protocol: In vitro compound screening against pancreatic cancer cell lines for IC50 determination. […] ASPC-1, BXPC-3, MIA-PaCa-2, and PANC-1 cell lines were obtained from ATCC. […] It should be noted that PANC-1, MIA-PaCa-2 and BxPC-3 cell-lines are gemcitabine-resistant cell-lines.
The IC50 was calculated using the following Log (inhibitor) versus Response equation: Y=Bottom+(Top−Bottom)/(1+10^((X-Log IC50))). Representative data and calculated IC50 values using the assay for representative compounds are shown FIGS. 4-7.

| Molecule | inhibition of cell-proliferation |
| --- | --- |
| bentiromide [Compound 5] | did not show any appreciable inhibition of cell-proliferation |
| CC1(C)O[C@@H]2C[C@H]3[C@@H]4CCC5=CC(=O)C=C[C@]5(C)[C@H]4[C@@H](O)C[C@]3(C)[C@]2(C(=O)CO)O1 [Compound 7, desonide] | did not show any appreciable inhibition of cell-proliferation |
| glimepiride [Compound 8] | did not show any appreciable inhibition of cell-proliferation |
